Measurements taken from ChEMBL document CHEMBL1201862, “PubChem BioAssay data set” (2004).
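Exposure lasted 48 hours, with cells grown in 96-well plates and compounds tested at five concentrations. GI50 = concentration required for 50% inhibition of growth.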 Calls of active or inactive are those of the source. Rule as the data show it: active = GI50 up to about 1.1 µM and inactive = higher.

What was measured:
Assay in all cases: NCI tumour cell line growth inhibition, 48 h
[1] = tested on: SK-MEL-5
[2] = tested on: U-251
[3] = tested on: UO-31
[4] = tested on: A549
[5] = tested on: HCT-116
[6] = tested on: SNB-75
[7] = tested on: CCRF-CEM
[8] = tested on: HOP-62
[9] = tested on: NCI/ADR-RES
[10] = tested on: HT-29
[11] = tested on: Malme-3M
[12] = tested on: SW-620
[13] = tested on: OVCAR-4
[14] = tested on: RPMI-8226
[15] = tested on: MCF7
[16] = tested on: KM12
[17] = tested on: M14
[18] = tested on: RXF 393
[19] = tested on: K562
[20] = tested on: NCI-H226

Measured: GI50

O=c1oc2ccc(Cl)cc2cc1-c1cn2ccsc2n1
inactive: [1] 51.1 µM | [2] 51.9 µM | [3] 34.3 µM | [4] 38.4 µM | [5] 36.6 µM | [6] > 100 µM | [7] 25.8 µM | [8] 46.8 µM | [9] 61.1 µM | [10] 52.8 µM | [11] > 100 µM | [12] 59.7 µM | [13] 33.4 µM | [14] 41.5 µM | [15] 20.9 µM | [16] 42.4 µM | [17] 57.7 µM | [18] 45.8 µM | [19] 33.5 µM

COI1NC(=O)c2ccccc21
inactive: [1] > 100 µM | [2] > 100 µM | [3] > 100 µM | [4] > 100 µM | [5] > 100 µM | [6] > 100 µM | [7] 60.4 µM | [8] > 100 µM | [9] > 100 µM | [10] > 100 µM | [11] > 100 µM | [12] > 100 µM | [13] > 100 µM | [14] > 100 µM | [15] > 100 µM | [16] > 100 µM | [17] > 100 µM | [19] > 100 µM | [20] > 100 µM

COc1cc([C@@H]2c3cc4c(cc3[C@H](OC3OC5COC(c6ccco6)OC5C(O)C3O)C3COC(=O)[C@@H]32)OCO4)cc(OC)c1OC (stereo partly drawn)
inactive: [1] 4.21 µM | [2] 3.18 µM | [3] 25.9 µM | [4] 3.79 µM | [5] 3.27 µM | [6] > 100 µM | [8] 7.89 µM | [9] 9.93 µM | [10] 2.8 µM | [11] 22.3 µM | [12] 3.5 µM | [13] 41.6 µM | [14] 7.01 µM | [15] 3.85 µM | [16] 4.48 µM | [17] 4.44 µM | [18] 2.82 µM | [20] 4.17 µM

CC1CC/C(=C\c2ccc(Cl)cc2)C2OC(N)=C(C#N)C(c3ccc(Cl)cc3)=C12 (stereo not drawn)
inactive: [1] 15.4 µM | [2] 15.2 µM | [3] 9.31 µM | [5] 12.6 µM | [7] 5.06 µM | [8] 2.18 µM | [9] 11.6 µM | [10] 6.92 µM | [11] 14.5 µM | [12] 21.4 µM | [14] 7.6 µM | [15] 11.4 µM | [16] 11.7 µM | [17] 16.2 µM | [18] 14.6 µM | [19] 9.66 µM | [20] 11 µM

CCCCCCCCCCCCCCCCCCNC(=O)C(N)Cc1ccc(OCc2ccccc2)cn1 (stereo not drawn)
inactive: [1] 18 µM | [2] 18.5 µM | [3] 17.3 µM | [4] 19.5 µM | [5] 21.5 µM | [6] 27.4 µM | [7] 13.5 µM | [8] 19 µM | [9] 20 µM | [10] 16.8 µM | [11] 20.6 µM | [12] 23.2 µM | [13] 17.2 µM | [14] 18.5 µM | [15] 19.4 µM | [16] 18.6 µM | [17] 17.9 µM | [18] 20 µM | [19] 23.1 µM

Cc1ccc(OCC2OC(n3cnc4c(Cl)nc(Cl)nc43)CC2Oc2ccc(C)cc2)cc1 (stereo not drawn)
inactive: [1] 7.1 µM | [2] 2.13 µM | [4] 3.5 µM | [5] 1.91 µM | [6] 2.52 µM | [7] 4.3 µM | [8] 2.56 µM | [9] 1.97 µM | [10] 1.57 µM | [11] 2.18 µM | [12] 3.66 µM | [13] 2.15 µM | [14] 1.23 µM | [15] 1.85 µM | [16] 1.7 µM | [17] 1.85 µM | [20] 3 µM

COc1cccc(N(CN2C(=O)CCC2C(=O)O)C(C)=O)c1 (stereo not drawn)
inactive: [1] > 100 µM | [2] > 100 µM | [3] > 100 µM | [4] > 100 µM | [5] > 100 µM | [6] > 100 µM | [8] > 100 µM | [9] > 100 µM | [10] > 100 µM | [11] > 100 µM | [12] > 100 µM | [13] > 100 µM | [14] > 100 µM | [15] > 100 µM | [16] > 100 µM | [17] > 100 µM | [18] > 100 µM | [19] > 100 µM | [20] > 100 µM

O=[N+]([O-])c1cc(Cl)cnc1Br
inactive: [1] 2.4 µM | [2] 2.16 µM | [3] 1.76 µM | [4] 2.67 µM | [5] 4.42 µM | [7] 4.32 µM | [8] 18.3 µM | [9] 2.14 µM | [10] 3.28 µM | [11] 10.9 µM | [12] 3.42 µM | [13] 2.28 µM | [14] 2.84 µM | [15] 1.32 µM | [16] 4.03 µM | [17] 3.87 µM | [18] 1.52 µM | [19] 2.64 µM | [20] 2.61 µM

CC(C)c1c(P(=O)(c2ccccc2)c2ccccc2)n(C)c2ccccc12
inactive: [2] 97.3 µM | [3] 31.8 µM | [4] 51.6 µM | [5] 35.9 µM | [6] 95.3 µM | [7] 59 µM | [8] > 100 µM | [9] 43.1 µM | [10] 53.8 µM | [11] > 100 µM | [12] > 100 µM | [13] 71.4 µM | [14] 56.6 µM | [15] > 100 µM | [16] 51.8 µM | [17] 64.4 µM | [19] 37.8 µM | [20] 52.8 µM

COC1OC(C)/C(=N/O)C2OC(C)(C)OC12 (stereo not drawn)
inactive: [1] > 100 µM | [2] > 100 µM | [3] > 100 µM | [4] > 100 µM | [5] > 100 µM | [7] > 100 µM | [8] > 100 µM | [9] > 100 µM | [10] > 100 µM | [11] > 100 µM | [12] > 100 µM | [13] > 100 µM | [14] > 100 µM | [15] 78.7 µM | [16] > 100 µM | [17] > 100 µM | [18] > 100 µM | [19] > 100 µM | [20] > 100 µM

O=C(/C=C/c1ccccc1)N1CCCCC1
inactive: [1] > 100 µM | [2] > 100 µM | [3] > 100 µM | [4] > 100 µM | [5] > 100 µM | [6] 15.2 µM | [7] > 100 µM | [8] > 100 µM | [9] > 100 µM | [10] > 100 µM | [12] > 100 µM | [13] > 100 µM | [14] > 100 µM | [15] > 100 µM | [16] > 100 µM | [17] > 100 µM | [18] > 100 µM | [19] > 100 µM | [20] > 100 µM

COC(=O)C1(CCC(C)=O)CCCCCC1=O (stereo not drawn)
inactive: [1] > 100 µM | [2] > 100 µM | [3] > 100 µM | [4] > 100 µM | [5] > 100 µM | [6] > 100 µM | [8] > 100 µM | [9] > 100 µM | [10] > 100 µM | [11] > 100 µM | [12] > 100 µM | [13] > 100 µM | [14] > 100 µM | [15] > 100 µM | [16] > 100 µM | [17] > 100 µM | [18] > 100 µM | [19] > 100 µM | [20] > 100 µM

CC1(C)/C(=N\Nc2ccc([N+](=O)[O-])cc2[N+](=O)[O-])C2CCC1C2 (stereo not drawn)
inactive: [1] 4.2 µM | [2] > 100 µM | [3] > 100 µM | [4] > 100 µM | [5] 5.65 µM | [6] 3.34 µM | [7] > 10 µM | [8] 74.5 µM | [9] > 100 µM | [10] > 100 µM | [11] > 100 µM | [12] > 100 µM | [13] 84.5 µM | [14] > 100 µM | [15] > 100 µM | [16] 30.1 µM | [17] > 100 µM | [19] > 100 µM | [20] > 100 µM

O=C(O)C1CC2(C1)CC(C(=O)O)C2 (stereo not drawn)
inactive: [1] > 100 µM | [2] > 100 µM | [3] > 100 µM | [4] > 100 µM | [5] > 100 µM | [6] > 100 µM | [8] > 100 µM | [9] > 100 µM | [10] > 100 µM | [11] > 100 µM | [12] > 100 µM | [13] > 100 µM | [14] > 100 µM | [15] > 100 µM | [16] > 100 µM | [17] > 100 µM | [18] > 100 µM | [19] > 100 µM

CCc1nc(N)nc(N)c1-c1ccc([N+](=O)[O-])c(NCc2ccccc2)c1
inactive: [1] 6.05 µM | [2] 12.8 µM | [3] 6.18 µM | [4] 6.17 µM | [5] 7.36 µM | [6] 10.1 µM | [7] 8.85 µM | [8] 12.4 µM | [9] 10.7 µM | [10] 7.91 µM | [12] 12.6 µM | [13] 15.2 µM | [14] 11.6 µM | [15] 13.6 µM | [16] 17.3 µM | [17] 12.4 µM | [18] 14.4 µM | [19] 5.2 µM | [20] 18.7 µM
